In US6828321B2, “1,2,4-Benzotriazine oxides as radiosensitizers and selective cytotoxic agents” (priority 1986, dated 2004):
Read-outs that look alike come from different tables or passages of the source.

Legend:
hypoxic cells in culture = assay: Radiosensitivity in vitro: drug concentration giving a sensitizer enhancement ratio of 1.6; format: cell-based; conditions: concentration of drug necessary to produce a sensitizer enhancement ratio of 1.6 of hypoxic cells in culture
From the text: The results of assays to determine the concentration of drug necessary to produce a sensitizer enhancement ratio of 1.6 of hypoxic cells in culture are as follows: […]

[1] = Polarographic half-wave reduction potential; format: physicochemical; conditions: Britton & Robinson pH 7.4 buffer, dropping mercury electrode
HA-1 cells = assay: Hypoxic versus aerobic cytotoxicity from survival curves of HA-1 cells; format: cell-based; conditions: for cytotoxicity against hypoxic HA-1 tumor cells in vitro compared to 22 / RHT (Relative Hypoxic Cytoxicity): hypoxic conditions; for RHT (Relative Hypoxic Cytoxicity): ratio of equitoxic concentrations of 22:analog; for RHT (Relative Hypoxic Cytoxicity) / HCR (Hypoxic Cytoxicity Ratio): HA-1 cells; for HCR (Hypoxic Cytoxicity Ratio): ratio of equitoxic concentrations of each analog, hypoxic:aerobic conditions
Determination of LD50 = format: in vivo; conditions: mouse, in vivo; Balb/c female mice 3 months of age; ip (or iv) injection
Protocol: (§1) LD50 is determined in BALB/c female mice (weighing 20-25 g) following intraperitoneal (ip) injection, unless the compound tested has low lipophilicity and is very soluble, wherein intravenous (iv) administration is used. LD50 values at 1, 2, 5, and 60 days are determined by administering graded doses of the drug dissolved in physiological saline immediately prior to injection.

[2] = Octanol-water partition coefficient (method of Fujita et al.); format: physicochemical; conditions: pH 7.4 buffer
Solubility = format: physicochemical
BALB/c female mice = assay: Determination of LD50; format: in vivo; conditions: Balb/c female mice 3 months of age; ip (or iv) injection
Protocol: as §1

SCCVII tumor [3] = assay: Enhanced tumor cell toxicity using hydralazine; format: in vivo, mice; conditions: FIG. 3
Protocol: For this assay, SCCVII carcinomas in female C3H mice weighing 20-25 g were used. These mice were bred under specific pathogen-free conditions and were 3-4 months old at the beginning of each experiment. The SCCVII tumor was grown intradermally in the flank from an inoculation of 2×10^5 tumor cells taken from the 2nd-8th in vitro passage of the tumor cells after removal from the previous in vivo tumor. Two tumors per mouse were implanted, and were used as subject tumors when they reached a volume of approximately 100 ml. At this point the tumors contained approximately 20% hypoxic cells.
The amount of cell killing was judged by survival rate of dissected and cultured tumor cells as follows. The tumor-bearing mice were killed 24 hr after irradiation, and tumors were dissected from the skin, cut into several pieces, and made into a fine brei by high-speed chopping with a razor blade attached to a jigsaw. The brei was added to 30 ml of Hank's buffered salt solution (HBSS) containing 0.02% DNase, 0.05% promase, and 0.02% collagenase. The suspension was stirred for 30 min at 37° C., filtered, and centrifuged at 1,600 rmp for 10 min at 4° C. […] Suitable dilutions of this serum plated into 60- or 100-mm polystyrene petri dishes (Lux Scientific Corp) in 5 or 15 ml of medium. After incubation for 13 days, the colonies were fixed and stained, and those containing 50 cells or more were counted. […]

SCCVII tumor [4] = assay: Fractionated radiotherapy of SCCVII tumors (8 x 2.5 Gy in four days); conditions: SR 2508 1000 mg/kg before each dose; for effect on growth delay of irradiated tumors: compound 22 0.08 mmole/kg alone before or with HDZ after irradiation, FIG. 6; for effect on radiation response, clonogenic tumor cell survival: compound 22 0.08 mmole/kg alone or with HDZ, FIG. 5
From the text: Our protocol was to use eight doses of 2.5 Gy/dose in four days (irradiating 2×/day). […] We used two different types of controls. […] We assayed the efficacies of the treatments using clonogenic cell survival and also regrowth delay.

[5] = test system: Chinese hamster ovary (CHO) cells; assay: Aerobic radiosensitization of CHO cells by hypoxic pre- or post-treatment; format: cell-based; conditions: for cell survival after drug treatment alone: 20 μM, hypoxic
From the text: The sensitization was predominantly a change in the slope of the radiation survival curve. Do decreased from 1.34 Gy (95% confidence limits: 1.09-1.76 Gy) to 0.80 Gy (95% confidence limits: 0.73-0.88 Gy), based on least-squares regression analysis of pooled data for the exponential portions of the survival curves for control and treated cells. However, sensitization at low radiation doses was also readily apparent.

[6] = test system: aerobic and hypoxic cells in culture (human, mouse, and hamster); assay: Cytotoxicity tests on aerobic and hypoxic cells in culture; format: cell-based
Protocol: The cells in spinner flasks were gassed for one hour at 37° C. with either air or nitrogen containing 5% CO2 prior to adding the specified amounts of the drug.

SCCVII carcinomas = assay: In vivo assay for activity in combination with radiation; set-up: species or system C3H mice; conditions: fixed radiation dose 20 Gy, 2 hr after to 3 hr before drug injection; FIG. 2

CCCCCCCCCCc1ccc2nc(N)n[n+]([O-])c2c1
melting point: 177 °C (dec.)

NC(=O)c1ccc2nc(N)n[n+]([O-])c2c1
melting point: 300 °C

CC(=NO)c1ccc2nc(N)n[n+]([O-])c2c1
melting point: 278 °C (dec.)

6(7)-methoxy-3-amino-1,2,4-benzotriazine 1,4-dioxide
C1.6 (hypoxic cells in culture): ˜1.0 mM

[O-][n+]1nc(O)[n+]([O-])c2ccccc21 [3-hydroxy-1,2,4-benzotriazine 1,4-dioxide]
C1.6 (hypoxic cells in culture): ˜2.0 mM

Nc1nc2ccc(Cl)cc2[n+]([O-])n1 [7-chloro-3-amino-1,2,4-benzotriazine 1-oxide]
C1.6 (hypoxic cells in culture): 3.3 mM

Nc1n[n+]([O-])c2cc([N+](=O)[O-])ccc2[n+]1[O-] [Compound 14, 7-nitro-3-amino-1,2,4-benzotriazine 1,4-dioxide]
E1/2 [1]: −133 mV
cytotoxicity against hypoxic HA-1 tumor cells in vitro compared to 22 (HA-1 cells): significantly enhanced cytotoxicity
RHT (Relative Hypoxic Cytoxicity) (HA-1 cells): 2
HCR (Hypoxic Cytoxicity Ratio) (HA-1 cells): 140

CCN(CC)CCCNc1n[n+]([O-])c2ccccc2[n+]1[O-] [Compound 18a, 3-(3-N,N-diethylaminopropylamino)-1,2,4-benzotriazine 1,4-dioxide]
E1/2 [1]: −348 mV
cytotoxicity against hypoxic HA-1 tumor cells in vitro compared to 22 (HA-1 cells): significantly enhanced cytotoxicity
LD50 (Determination of LD50): 250 µmol/kg
logP [2]: -1.34
solubility (Solubility; read-out: Solubility): > 181 mM

CCN(CC)CCNc1n[n+]([O-])c2cc([N+](=O)[O-])ccc2[n+]1[O-].Cl [Compound 21, 7-nitro-3-(2-N,N-diethylaminoethylamino)-1,2,4-benzotriazine 1,4-dioxide hydrochloride]
E1/2 [1]: −140 mV
cytotoxicity against hypoxic HA-1 tumor cells in vitro compared to 22 (HA-1 cells): significantly enhanced cytotoxicity
RHT (Relative Hypoxic Cytoxicity) (HA-1 cells): 3
HCR (Hypoxic Cytoxicity Ratio) (HA-1 cells): 211
LD50 (BALB/c female mice): 0.40
Log P [2]: −0.20
solubility (Solubility): 96.40 mM

Nc1n[n+]([O-])c2ccccc2[n+]1[O-] [Compound 22, 3-amino-1,2,4-benzotriazine 1,4-dioxide]
factor by which survival was reduced (SCCVII tumor [3]; combination with hydralazine): 10^3
cell killing in the SCCVII tumor, agent alone (SCCVII tumor [3]; single agent): neither hydralazine nor the aforementioned benzotriazine compound produced any significant cell killing
effect on growth delay of irradiated tumors (SCCVII tumor [4]): large increase in effect compared to radiation or drug alone
effect on radiation response, clonogenic tumor cell survival (SCCVII tumor [4]): large enhancement of the radiation response
cell survival after drug treatment alone ([5]; 1.0 h preirradiation exposure): approximately 32%
cell survival after drug treatment alone ([5]; 1.5 h postirradiation treatment): 23%
cell survival after drug treatment alone ([5]; 1.5 h preirradiation exposure): ~19%
cell survival after drug treatment alone ([5]; 2.0 h preirradiation exposure): ~8%
cell survival after drug treatment alone ([5]; 2.5 h preirradiation exposure): ~2%
Do of the radiation survival curve of treated cells ([5]; pooled data of treated cells, control 1.34 Gy, 95% confidence limits 0.73-0.88 Gy): 0.80 Gy
drug concentration required under hypoxia for equal cell killing, as share of the aerobic concentration [6]: 1 to 2%
tumor cell killing combined with radiation compared to radiation only (SCCVII carcinomas): enhanced cell killing compared to radiation only

O=C(Cn1ccnc1[N+](=O)[O-])NCCO [SR 2508, reference compound]
effect on growth delay of irradiated tumors (SCCVII tumor [4]): no radiosensitizing effect
effect on radiation response, clonogenic tumor cell survival (SCCVII tumor [4]): no effect
